Test results taken from patent US11866720B2, “Transgenic or non-transgenic plants with mutated protoporphyrinogen oxidase having increased tolerance to herbicides” (priority 2013, dated 2024).
Several values for one entry are separate records, joined by “and”; a condition that tells them apart may be missing. Equal values may be shown once. Read-outs that look alike come from different tables or passages of the source.

Key:
[1] = test system: transgenic soybean expressing mutated PPO; type: in vivo, Glycine max; settings: T1 soybean, field; for injury (1-5 point scale): benzoxazin (BAS 850H) 100 g ai/ha, 3 days after treatment; for injury (1-5 point scale): key: 1: no obvious damage (no phytotoxicity); 2: minor amount of leaf damage, plant will survive; 3: moderate amount of leaf damage, plant will survive; 4: severe amount of leaf damage, plant will survive; 5: no surviving plants - all plants dead/dying
[2] = test system: transgenic soybean expressing mutated PPO; test: Soybean segregating T1 individuals, greenhouse spray test (injury 0-9); type: in vivo, Glycine max; settings: benzoxazin 100 g ai/ha, 1 week after treatment
[3] = test system: transgenic soybean expressing mutated PPO; test: Soybean T0 cuttings, greenhouse spray test (injury score 0-9, 1 week after treatment); type: in vivo, Glycine max; settings: for Injury score from 0-9: soybean T0 cuttings, 1 week after treatment
From the text: For testing of T0 plants, cuttings can be used. In the case of soybean plants, an optimal shoot for cutting is about 7.5 to 10 cm tall, with at least two nodes present. Each cutting is taken from the original transformant (mother plant) and dipped into rooting hormone powder (indole-3-butyric acid, IBA). The cutting is then placed in oasis wedges inside a bio-dome. Wild type cuttings are also taken simultaneously to serve as controls. The cuttings are kept in the bio-dome for 5-7 days and then transplanted to pots and then acclimated in the growth chamber for two more days. Subsequently, the cuttings are transferred to the greenhouse, acclimated for approximately 4 days, and then subjected to spray tests as indicated. Depending on the species, the plants are kept at 10-25° C. or 20-35° C. The test period extends over 3 weeks. During this time, the plants are tended and their response to the individual treatments is evaluated. Herbicide injury evaluations are taken at 2 and 3 weeks after treatment. Plant injury is rated on a scale of 0% to 100%, 0% being no injury and 100% being complete death.
Soybean cv Jake was transformed as previously described by Siminszky et al., Phytochem Rev. 5:445-458 (2006). After regeneration, transformants were transplanted to soil in small pots, placed in growth chambers (16 hr day/8 hr night; 25° C. day/23° C. night; 65% relative humidity; 130-150 microE m-2 s-1) and subsequently tested for the presence of the T-DNA via Taqman analysis. After a few weeks, healthy, transgenic positive, single copy events were transplanted to larger pots and allowed to grow in the growth chamber. An optimal shoot for cutting was about 3-4 inches tall, with at least two nodes present. Each cutting was taken from the original transformant (mother plant) and dipped into rooting hormone powder (indole-3-butyric acid, IBA). The cutting was then placed in oasis wedges inside a bio-dome. The mother plant was taken to maturity in the greenhouse and harvested for seed. Wild type cuttings were also taken simultaneously to serve as negative controls. The cuttings were kept in the bio-dome for 5-7 days and then transplanted to 3 inch pots and then acclimated in the growth chamber for two more days. […] Herbicide injury evaluations were taken at 2, 7, 14 and 21 days after treatment. Results are shown in Tables 11a-11i, and FIGS. 5, 6, and 7.
The following gives a definition of the injury scores measured above: […]

[4] = test system: transgenic Arabidopsis thaliana plants expressing wildtype or mutated PPO; test: Germination / growth inhibition assay of transgenic Arabidopsis T2 seeds in 48-well plates; settings: growth inhibition seven to ten days after seeding
[5] = SDS-10648 AmtuPPX2L R128A_F420I

C#CCN1C(=O)C(F)(F)Oc2cc(F)c(-n3c(=O)n(C)c(=S)n(C)c3=O)cc21
Injury rating (1-5 point scale) ([1]; AmtuPPX2L_R128A_F420V (event 10), BAS 850H: treatment 1 100 g ai/ha, treatment 2 0, 7DAT): 3.5 | Injury rating (1-5 point scale) ([1]; AmtuPPX2L_R128A_F420V (event 10), BAS 850H: treatment 1 300 g ai/ha, treatment 2 300 g ai/ha, 14 DAT): 3 | injury (1-5 point scale) [1, 5]: 3 | injury (1-5 point scale) ([1]; SDS-10791 AmtuPPX2L R128A_F420I): 2 | injury (1-5 point scale) ([1]; SDS-11014 AmtuPPX2L R128A_F420I): 2 | injury (1-5 point scale) ([1]; SDS-11034 AmtuPPX2L L397D_F420V): 3 | injury (1-5 point scale) ([1]; SDS-11035 AmtuPPX2L R128A_F420V): 2 | injury (1-5 point scale) ([1]; SDS-11052 AmtuPPX2L R128A_F420M): 3 | Injury rating (1-5 point scale) ([1]; wild type, BAS 850H: treatment 1 100 g ai/ha, treatment 2 0, 7DAT): 5 | Injury rating (1-5 point scale) ([1]; wild type, BAS 850H: treatment 1 300 g ai/ha, treatment 2 300 g ai/ha, 14 DAT): 5 | injury (1-5 point scale) ([1]; wild type): 5 | injury (0-9 point scale) ([2]; SDS10791 AmtuPPX2L R128A_F420I): 3 (2×) and 2 and 4 (3×) and 9 and 5 | injury (0-9 point scale) ([2]; SDS-10642 AmtuPPX2L R128A_F420L): 6 and 5 (5×) and 9 and 4 | injury (0-9 point scale) [2, 5]: 4 (3×) and 9 and 5 (4×) | injury (0-9 point scale) ([2]; SDS-10652 AmtuPPX2L L397D_F420V): 9 (2×) and 4 (6×) | injury (0-9 point scale) ([2]; SDS-10787 AmtuPPX2L R128A_F420L): 4 and 5 (3×) and 9 (2×) and 6 (2×) | injury (0-9 point scale) ([2]; SDS-10985 AmtuPPX2L R128A_F420M): 9 (5×) and 6 (3×) | injury (0-9 point scale) ([2]; SDS-10990 AmtuPPX2L R128A_F420M): 9 (3×) and 7 (2×) and 6 (3×) | injury (0-9 point scale) ([2]; SDS-11034 AmtuPPX2L R128A_F420V): 4 (3×) and 3 (3×) and 2 (2×) | injury (0-9 point scale) ([2]; wild type): 9 (7×) and 8 | injury score 1 WAT ([3]; Soy T0 AmtuPPX2L_R128L_F420V event 1, greenhouse, 25 g ai/ha): 3 | injury score 1 WAT ([3]; Soy T0 AmtuPPX2L_R128L_F420V event 1, greenhouse, 50 g ai/ha): 4 | injury score 1 WAT ([3]; Soy T0 AmtuPPX2L_R128L_F420V event 1, greenhouse, 75 g ai/ha): 5 | injury score 1 WAT ([3]; Soy T0 AmtuPPX2L_R128L_F420V event 2, greenhouse, 25 g ai/ha): 0 | injury score 1 WAT ([3]; Soy T0 AmtuPPX2L_R128L_F420V event 2, greenhouse, 50 g ai/ha): 1 | injury score 1 WAT ([3]; Soy T0 AmtuPPX2L_R128L_F420V event 2, greenhouse, 75 g ai/ha): 3 | Injury score from 0-9 ([3]; AmtuPPX2L (10 events), benzoxazin 12.5 + 1% MSO): 3 | Injury score from 0-9 ([3]; AmtuPPX2L (10 events), benzoxazin 25 + 1% MSO): 5 | Injury score from 0-9 ([3]; AmtuPPX2L_F420L (7 events), benzoxazin 12.5 + 1% MSO): 2 | Injury score from 0-9 ([3]; AmtuPPX2L_F420L (7 events), benzoxazin 25 + 1% MSO): 1 | Injury score from 0-9 ([3]; AmtuPPX2L_F420M (8 events), benzoxazin 25 + 1% MSO): 1 | Injury score from 0-9 ([3]; AmtuPPX2L_F420M (8 events), benzoxazin 50 + 1% MSO): 2 | Injury score from 0-9 ([3]; AmtuPPX2L_R128A_F420I (9 events), benzoxazin 25 + 1% MSO): 2 | Injury score from 0-9 ([3]; AmtuPPX2L_R128A_F420I (9 events), benzoxazin 50 + 1% MSO): 2 | Injury score from 0-9 ([3]; AmtuPPX2L_R128A_F420I (9 events), benzoxazin 75 + 1% MSO): 3 | Injury score from 0-9 ([3]; AmtuPPX2L_R128A_F420L (6 events), benzoxazin 25 + 1% MSO): 0 | Injury score from 0-9 ([3]; AmtuPPX2L_R128A_F420M (7 events), benzoxazin 25 + 1% MSO): 3 | Injury score from 0-9 ([3]; AmtuPPX2L_R128A_F420M (7 events), benzoxazin 50 + 1% MSO): 3 | Injury score from 0-9 ([3]; AmtuPPX2L_R128A_F420M (7 events), benzoxazin 75 + 1% MSO): 4 | Injury score from 0-9 ([3]; AmtuPPX2L_R128A_F420V (14 events), benzoxazin 25 + 1% MSO): 2 | Injury score from 0-9 ([3]; AmtuPPX2L_R128A_F420V (14 events), benzoxazin 50 + 1% MSO): 2 | Injury score from 0-9 ([3]; AmtuPPX2L_R128A_F420V (14 events), benzoxazin 75 + 1% MSO): 3 | Injury score from 0-9 ([3]; AmtuPPX2L_dG210 (13 events), benzoxazin 25 + 1% MSO): 1 | Injury score from 0-9 ([3]; AmtuPPX2L_dG210 (13 events), benzoxazin 50 + 1% MSO): 3 | Injury score from 0-9 ([3]; AmtuPPX2L_dG210_R128L (12 events), benzoxazin 25 + 1% MSO): 2 | Injury score from 0-9 ([3]; AmtuPPX2L_dG210_R128L (12 events), benzoxazin 50 + 1% MSO): 3 | Injury score from 0-9 ([3]; NitabPPX2 (13 events), benzoxazin 12.5 + 1% MSO): 6 | Injury score from 0-9 ([3]; NitabPPX2 (13 events), benzoxazin 25 + 1% MSO): 6 | Injury score from 0-9 ([3]; NitabPPX2_R98A_F392V (9 events), benzoxazin 25 + 1% MSO): 0 | Injury score from 0-9 ([3]; NitabPPX2_R98A_F392V (9 events), benzoxazin 50 + 1% MSO): 0 | Injury score from 0-9 ([3]; wild type Jake variety, benzoxazin 12.5 + 1% MSO): 7 | Injury score from 0-9 ([3]; wild type Jake variety, benzoxazin 25 + 1% MSO): 8 | Injury score from 0-9 ([3]; wild type Jake variety, benzoxazin 50 + 1% MSO): 9 | Injury score from 0-9 ([3]; wild type Jake variety, benzoxazin 75 + 1% MSO): 9 | Relative tolerance rate as compared to a non-transgenic Arabidopsis plant (non-transgenic = 1.0) ([4]; transgenic Arabidopsis AMATU_PPO2_F420I): 367 | Relative tolerance rate as compared to a non-transgenic Arabidopsis plant (non-transgenic = 1.0) ([4]; transgenic Arabidopsis AMATU_PPO2_F420L): 253 | Relative tolerance rate as compared to a non-transgenic Arabidopsis plant (non-transgenic = 1.0) ([4]; transgenic Arabidopsis AMATU_PPO2_F420M): 102 | Relative tolerance rate as compared to a non-transgenic Arabidopsis plant (non-transgenic = 1.0) ([4]; transgenic Arabidopsis AMATU_PPO2_R128A_F420I): 333 | Relative tolerance rate as compared to a non-transgenic Arabidopsis plant (non-transgenic = 1.0) ([4]; transgenic Arabidopsis AMATU_PPO2_R128A_F420L): 333 | Relative tolerance rate as compared to a non-transgenic Arabidopsis plant (non-transgenic = 1.0) ([4]; transgenic Arabidopsis AMATU_PPO2_R128A_F420M): 204 | Relative tolerance rate as compared to a non-transgenic Arabidopsis plant (non-transgenic = 1.0) ([4]; transgenic Arabidopsis AMATU_PPO2_R128L): 23 | Relative tolerance rate as compared to a non-transgenic Arabidopsis plant (non-transgenic = 1.0) ([4]; transgenic Arabidopsis AMATU_PPO2_dG210): 33 | Relative tolerance rate as compared to a non-transgenic Arabidopsis plant (non-transgenic = 1.0) ([4]; transgenic Arabidopsis AMATU_PPO2_dG210_R128L): 153 | Relative tolerance rate as compared to a non-transgenic Arabidopsis plant (non-transgenic = 1.0) ([4]; transgenic Arabidopsis AMATU_PPO2_wt): 13
